Test results from PubChem BioAssay (NCI).
Several values for one entry are separate records, joined by “and”; a condition that tells them apart may be missing. Equal entries are not always repeated.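 96-well plates; 48 h exposure; 5 concentrations. Endpoints by linear interpolation between flanking doses. Not reached: highest tested concentration assigned. GI50: concentration for 50% inhibition of growth. TGI is the concentration that stops growth completely.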 *1 amine or outer side, *2 acyl side, *3 side chain or, on linkers, in order; H or OH if unused. Where a SMILES comes first, the peptide text is derived from it. Bridges are numbered along the chain shown (N, C = ends). [ ]: non-standard residue; d: D form. X35 = CC[C@H](C)[C@@H](N[*:1])[C@@H](O)CC(=O)O[C@H](C(=O)[C@H](C)C(=O)[*:2])C(C)C; NMeY = CN[C@@H](Cc1ccc(O)cc1)C(=O)O

Experiments:
Assay in all cases: NCI anticancer screen, dose series, 48 h
IGROV1 ovarian = system: IGROV1 ovarian
COLO 205 colon = system: COLO 205 colon
SK-MEL-5 melanoma = system: SK-MEL-5 melanoma
A498 renal = system: A498 renal
U251 CNS = system: U251 CNS
M14 melanoma = system: M14 melanoma
NCI-H460 lung = system: NCI-H460 lung
HOP-92 NSCLC = system: HOP-92 NSCLC
MDA-MB-435 = system: MDA-MB-435
HCT-116 colon = system: HCT-116 colon
786-0 renal = system: 786-0 renal
ACHN renal = system: ACHN renal
K-562 leukemia = system: K-562 leukemia
SW-620 colon = system: SW-620 colon
MDA-N = system: MDA-N
RPMI-8226 leukemia = system: RPMI-8226 leukemia
HS 578T breast = system: HS 578T breast
MDA-MB-231 breast = system: MDA-MB-231 breast

Row | Compound | TGI (IGROV1 ovarian) [µM] | TGI (COLO 205 colon) [µM] | TGI (SK-MEL-5 melanoma) [µM] | TGI (A498 renal) [µM] | TGI (U251 CNS) [µM] | TGI (M14 melanoma) [µM] | TGI (NCI-H460 lung) [µM] | TGI (HOP-92 NSCLC) [µM] | TGI (MDA-MB-435) [µM] | TGI (HCT-116 colon) [µM] | TGI (786-0 renal) [µM] | TGI (ACHN renal) [µM] | TGI (K-562 leukemia) [µM] | TGI (SW-620 colon) [µM] | TGI (MDA-N) [µM] | TGI (RPMI-8226 leukemia) [µM] | TGI (HS 578T breast) [µM] | TGI (MDA-MB-231 breast) [µM] | GI50 (IGROV1 ovarian)
1 | CN(C)c1ccc(C=Nc2ccc(-c3nc4ccccc4s3)cc2)cc1 | > 100 | 62.3 | 44.8 | 37.1 | > 100 | > 100 | 93.2 | 59.4 | > 100 | > 100 | 42.8 | 69 | > 100 | > 100 | > 100 | > 100 |  |  | 
2 | CCCCN=NNc1cn(C2OC(CO)C(O)C2O)c(=O)[nH]c1=O (stereo unspecified) | > 100 | > 100 | > 100 | > 100 |  | > 100 | > 100 |  | > 100 | > 100 | > 100 | > 100 |  | > 100 | > 100 |  | > 100 | > 100 | 
3 | CC[C@H](C)[C@@H]([C@@H](CC(=O)N1CCC[C@H]1[C@H](OC)[C@@H](C)C(=O)NCCc1ccccc1)OC)N(C)C(=O)C(NC(=O)[C@H](C(C)C)N(C)C)C(C)C (stereo partly specified) |  | 0.000267 |  | > 10 | 0.0068 | 0.000855 |  |  | 0.000192 | 0.0038 | 1.34 | > 10 | > 10 | > 10 | 0.000164 |  |  | 0.00271 | 
4 | C=C1CC[C@@H]2C13[C@@H]1[C@H](CC(=O)[C@@]23C)C1(C)C (stereo partly specified) | > 100 | > 100 | > 100 | > 100 | > 100 | > 100 | > 100 | > 100 | > 100 | > 100 | > 100 | > 100 | > 100 | > 100 |  | > 100 | > 100 |  | 
5 | CCN(CC)CCNc1ccc2ncn3c4ccc(OC)cc4c(=O)c1c23 | 28.1 | 15.5 | 20 | 21.5 | 5.31 | 11.7 | 5.52 | 23 | 18.6 | 13.5 | 15.5 | 19 | 22.7 | 11.1 | 19.6 |  | 30.4 |  | 
6 | CC(=O)OCC1OC(n2c(C)c(C(C)=O)c(-c3ccco3)c(C#N)c2=S)C(OC(C)=O)C(OC(C)=O)C1OC(C)=O (stereo unspecified) | > 100 | > 100 | > 100 | > 100 | > 100 | > 100 | > 100 | 87.5 | > 100 | > 100 | > 100 | > 100 | > 100 | > 100 | > 100 |  |  | > 100 | > 100 µM and 43.6 µM
7 | C/C(O)=C(\C=N\C(=S)N=Nc1c(O)[nH]c2ccccc12)C(=O)Nc1ccccc1C | > 100 | > 100 | > 100 | > 100 | > 100 | > 100 | > 100 | > 100 | > 100 | > 100 | > 100 | > 100 |  | > 100 | > 100 |  |  | > 100 | 
8 | CC[C@H](C)[C@H]1NC(=O)[C@@H](N)[C@@H](C)OC(=O)[C@H](Cc2ccc(OC)cc2)N(C)C(=O)[C@@H]2CCCN2C(=O)[C@H](CC(C)C)NC(=O)[C@@H](C)C(=O)[C@H](C(C)C)OC(=O)C[C@@H]1O (H-T[X35]LP[NMeY](Me); ester 1-C) | > 100 |  | 54.9 |  | > 100 | 32.3 | > 100 |  | 56.1 |  | > 100 | > 100 | > 100 | 50.1 |  | > 100 | > 100 |  | 
9 | C=C1CN=C(Nc2ccc(Cl)cc2)S1 | > 100 | > 100 | > 100 | > 100 | > 100 | > 100 | > 100 | > 100 |  | > 100 | > 100 | > 100 | > 100 | > 100 | > 100 | > 100 | > 100 | > 100 | 
10 | O=C(Sc1c(-c2ccccc2)c(=O)n(-c2ccccc2)c(=S)n1-c1ccccc1)c1ccccc1 | > 100 | > 100 | > 100 |  | > 100 | > 100 | > 100 | 71.9 | > 100 | > 100 | > 100 | > 100 | > 100 | > 100 | > 100 | > 100 | > 100 |  | 
11 | C/C=C/c1cc2c(cc1O)CC[C@@H]1[C@@H]2CC[C@]2(C)[C@@H](O)CC[C@@H]12 | 19 | 24.4 | 14.2 | 6.11 | 13 | 4.05 | 14.3 |  | 0.0948 | 5.17 | 13.8 | 15.5 | 15.7 | 19 |  | > 82.6 | 22.3 | 4.94 | 
12 | CCCCCCCCOC(=O)C12Oc3ccc(-c4ccc5c(c4O)C(O)=C4C(=O)CC(C)C(O)C4(C(=O)OCCCCCCCC)O5)c(O)c3C(O)=C1C(=O)CC(C)C2O (stereo unspecified) | 61.3 | 65.3 | 48.7 | > 100 | 27.5 | > 100 | > 100 | 42.5 | > 100 | > 100 | > 100 | 25.5 | 17.4 | > 100 | > 100 |  | > 100 | 59.7 | 
13 | CNc1cc([N+](=O)[O-])ccc1C(=O)N1CCC[C@H]1CO | > 100 |  |  | > 100 | > 100 | > 100 | > 100 | > 100 | > 100 | > 100 | > 100 | > 100 | > 100 | > 100 | > 100 | > 100 |  | > 100 | 
14 | C/C(=C\COP(=O)(O)OP(=O)(O)O)CCCCCCOCc1ccccc1 | > 100 | > 100 | > 100 | > 100 | > 100 | > 100 | > 100 | > 100 | > 100 | > 100 | > 100 | > 100 | > 100 | > 100 |  | > 100 | > 100 | > 100 | 
